How the values were obtained:
Format in all cases: cell-based
Details in all cases: hPBMC Cell; 24 hours
[1] = biological target: T1, IKZF3 (Homo sapiens, UniProt Q96SW2+Q9UKT9); assay: Western blot degradation of IKZF3
T1 construct: expression of target proteins in cells; endogenous in cells
Description: (§1) Conventional Western blot assay was performed to evaluate the effects of the compounds of the present disclosure on the expression of target proteins in cells.
(§2) (1) Cell Seeding and Protein Harvesting: The selected cells were processed according to the cell seeding procedure and protein harvesting procedure in Table II-2.
(§3) (2) To the collected supernatant, 5×SDS sample loading buffer was added, followed by denaturation at 95 °C for 5 minutes. The denatured samples were then separated by SDS-PAGE electrophoresis on a polyacrylamide gel. Proteins were transferred to a nitrocellulose membrane (0.45 μm NC membrane), blocked with blocking buffer at room temperature for 1 hour, and subjected to antibody incubation and development procedures according to the antibody manufacturer's instructions (Cell Signaling Technology).
(§4) Half-Maximal Degradation Concentration value (the drug concentration required for degrading proteins by 50%, abbreviated as DC50) reads method: comparing the grayscale values of Western blot bands from drug-treated samples with those from blank DMSO-treated controls, and identifying the drug concentration range at which the grayscale value is half that of the DMSO-treated control bands.
(§5) DC50 values can be calculated using ImageJ software to measure grayscale values of Western blot bands from drug-treated samples. The concentration-response curve is fitted to estimate the drug concentration corresponding to half the grayscale value.
(§6) Target protein remaining (%) refers to the percentage of target protein remaining in cells after treatment with protein degrader compounds.
(§7) Calculation method for target protein remaining (%): Use ImageJ software to measure grayscale values of Western blot bands from drug (protein degrader)-treated samples. The grayscale value of drug-treated bands is divided by that of internal control protein bands, and the resulting quotient is normalized to obtain the relative percentage of remaining target protein after protein degrader treatment.
(§8) Target protein degradation rate (%)=1−target protein remaining (%).

[2] = biological target: T2, IKZF1 (Homo sapiens, UniProt Q13422+Q96SW2); assay: Western blot degradation of IKZF1
T2 construct: expression of target proteins in cells; endogenous in cells
Description: as §1, §2, §3, §4, §5, §6, §7, §8

[3] = biological target: T3, CK1α (Homo sapiens, UniProt P48729+Q96SW2); assay: Western blot degradation of CK1α
T3 construct: expression of target proteins in cells; endogenous in cells
T3 sequence (P48729 whole entry): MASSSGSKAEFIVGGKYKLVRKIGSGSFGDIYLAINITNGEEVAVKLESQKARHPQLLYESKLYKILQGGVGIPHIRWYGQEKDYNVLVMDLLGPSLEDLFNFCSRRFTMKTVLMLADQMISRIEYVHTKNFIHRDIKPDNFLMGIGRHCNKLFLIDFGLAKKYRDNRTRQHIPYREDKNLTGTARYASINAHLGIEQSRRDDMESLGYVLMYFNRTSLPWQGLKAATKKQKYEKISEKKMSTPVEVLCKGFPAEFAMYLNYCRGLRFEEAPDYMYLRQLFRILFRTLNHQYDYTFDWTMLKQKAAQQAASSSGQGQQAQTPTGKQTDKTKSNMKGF
T3 sequence (Q96SW2 whole entry): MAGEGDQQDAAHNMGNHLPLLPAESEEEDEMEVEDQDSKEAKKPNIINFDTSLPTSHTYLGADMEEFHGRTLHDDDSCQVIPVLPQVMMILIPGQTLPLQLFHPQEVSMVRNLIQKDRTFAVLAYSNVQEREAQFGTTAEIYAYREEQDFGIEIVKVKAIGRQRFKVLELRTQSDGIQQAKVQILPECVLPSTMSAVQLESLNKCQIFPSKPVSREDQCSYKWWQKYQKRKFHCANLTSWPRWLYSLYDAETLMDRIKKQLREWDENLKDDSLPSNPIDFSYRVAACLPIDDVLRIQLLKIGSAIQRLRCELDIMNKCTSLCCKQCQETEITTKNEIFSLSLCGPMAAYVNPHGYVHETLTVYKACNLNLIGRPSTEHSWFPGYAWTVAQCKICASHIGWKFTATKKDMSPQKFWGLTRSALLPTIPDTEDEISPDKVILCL
T3 sequence (Q16531 whole entry partner): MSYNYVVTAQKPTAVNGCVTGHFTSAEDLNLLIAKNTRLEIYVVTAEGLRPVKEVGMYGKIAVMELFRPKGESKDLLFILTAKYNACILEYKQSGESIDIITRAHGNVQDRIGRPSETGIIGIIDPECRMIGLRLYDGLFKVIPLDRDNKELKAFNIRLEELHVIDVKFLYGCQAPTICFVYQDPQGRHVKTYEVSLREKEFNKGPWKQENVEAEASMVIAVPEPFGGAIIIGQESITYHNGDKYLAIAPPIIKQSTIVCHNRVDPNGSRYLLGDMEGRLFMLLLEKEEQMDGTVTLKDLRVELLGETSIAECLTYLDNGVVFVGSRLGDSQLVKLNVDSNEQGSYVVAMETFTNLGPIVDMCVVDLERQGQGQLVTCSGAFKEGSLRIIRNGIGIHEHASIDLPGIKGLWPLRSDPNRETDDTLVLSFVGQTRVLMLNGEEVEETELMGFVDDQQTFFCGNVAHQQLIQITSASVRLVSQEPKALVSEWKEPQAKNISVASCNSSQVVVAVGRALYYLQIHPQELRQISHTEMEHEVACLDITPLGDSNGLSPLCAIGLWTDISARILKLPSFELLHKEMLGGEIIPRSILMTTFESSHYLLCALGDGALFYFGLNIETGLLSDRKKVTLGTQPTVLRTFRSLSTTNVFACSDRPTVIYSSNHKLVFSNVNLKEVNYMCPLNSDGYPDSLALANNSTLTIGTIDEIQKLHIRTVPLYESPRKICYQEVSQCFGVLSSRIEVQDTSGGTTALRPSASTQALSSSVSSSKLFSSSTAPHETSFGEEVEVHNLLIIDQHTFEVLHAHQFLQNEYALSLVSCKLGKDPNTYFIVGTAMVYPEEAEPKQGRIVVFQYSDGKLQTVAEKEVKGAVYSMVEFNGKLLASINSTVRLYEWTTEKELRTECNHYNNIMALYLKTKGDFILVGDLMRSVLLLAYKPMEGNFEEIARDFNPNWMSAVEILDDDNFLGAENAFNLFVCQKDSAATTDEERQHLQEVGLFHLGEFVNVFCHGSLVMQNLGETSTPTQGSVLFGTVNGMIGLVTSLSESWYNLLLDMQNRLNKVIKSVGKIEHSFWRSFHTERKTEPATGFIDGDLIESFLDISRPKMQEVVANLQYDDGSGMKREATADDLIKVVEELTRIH
Description: as §1, §2, §3, §4, §5, §6, §7, §8

[4] = biological target: T4, WEE1 (Homo sapiens, UniProt P30291+Q96SW2); assay: Western blot degradation of WEE1
T4 construct: expression of target proteins in cells; endogenous in cells
T4 sequence (P30291 whole entry): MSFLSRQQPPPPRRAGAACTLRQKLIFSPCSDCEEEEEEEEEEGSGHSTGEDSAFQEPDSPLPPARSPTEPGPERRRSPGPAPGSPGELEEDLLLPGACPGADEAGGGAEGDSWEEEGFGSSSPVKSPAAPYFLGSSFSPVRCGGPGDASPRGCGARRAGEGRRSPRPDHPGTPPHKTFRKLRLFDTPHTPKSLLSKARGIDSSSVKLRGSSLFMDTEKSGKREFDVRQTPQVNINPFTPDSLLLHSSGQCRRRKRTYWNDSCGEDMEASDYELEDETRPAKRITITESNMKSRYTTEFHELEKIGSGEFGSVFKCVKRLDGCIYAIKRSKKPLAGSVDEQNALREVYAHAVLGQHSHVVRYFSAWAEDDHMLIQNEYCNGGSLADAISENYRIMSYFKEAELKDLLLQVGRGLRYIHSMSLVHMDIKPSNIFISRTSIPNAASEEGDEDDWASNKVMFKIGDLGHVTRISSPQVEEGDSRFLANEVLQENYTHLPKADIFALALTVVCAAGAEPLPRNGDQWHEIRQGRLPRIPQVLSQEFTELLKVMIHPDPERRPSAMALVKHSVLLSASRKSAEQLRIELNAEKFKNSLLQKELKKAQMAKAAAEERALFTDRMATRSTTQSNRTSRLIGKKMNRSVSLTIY
T4 sequence (Q96SW2 whole entry): as the sequence (Q96SW2 whole entry) above
T4 sequence (Q16531 whole entry partner): as the sequence (Q16531 whole entry partner) above
Description: as §1, §2, §3, §4, §5, §6, §7, §8

[5] = biological target: T5, GSPT1 (Homo sapiens, UniProt P15170+Q96SW2); assay: Western blot degradation of GSPT1
T5 construct: expression of target proteins in cells; endogenous in cells
T5 sequence (P15170 whole entry): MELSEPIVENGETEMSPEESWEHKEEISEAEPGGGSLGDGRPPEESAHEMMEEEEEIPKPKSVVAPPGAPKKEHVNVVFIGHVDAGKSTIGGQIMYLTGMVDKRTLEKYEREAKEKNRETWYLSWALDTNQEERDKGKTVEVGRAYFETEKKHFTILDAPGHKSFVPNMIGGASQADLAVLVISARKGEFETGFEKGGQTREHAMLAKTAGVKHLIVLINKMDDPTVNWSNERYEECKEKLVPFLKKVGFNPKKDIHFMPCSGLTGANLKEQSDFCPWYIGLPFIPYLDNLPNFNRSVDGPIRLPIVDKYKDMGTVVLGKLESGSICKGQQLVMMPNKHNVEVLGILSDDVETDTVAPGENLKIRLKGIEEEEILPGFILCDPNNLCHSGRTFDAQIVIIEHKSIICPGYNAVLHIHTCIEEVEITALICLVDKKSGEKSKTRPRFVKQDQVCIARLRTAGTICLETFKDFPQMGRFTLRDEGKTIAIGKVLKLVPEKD
T5 sequence (Q96SW2 whole entry): as the sequence (Q96SW2 whole entry) above
T5 sequence (Q16531 whole entry partner): as the sequence (Q16531 whole entry partner) above
Description: as §1, §2, §3, §4, §5, §6, §7, §8

[6] = biological target: T6, IKZF2 (Homo sapiens, UniProt Q96SW2+Q9UKS7); assay: Western blot degradation of IKZF2
T6 construct: expression of target proteins in cells; endogenous in cells
T6 sequence (Q9UKS7 whole entry): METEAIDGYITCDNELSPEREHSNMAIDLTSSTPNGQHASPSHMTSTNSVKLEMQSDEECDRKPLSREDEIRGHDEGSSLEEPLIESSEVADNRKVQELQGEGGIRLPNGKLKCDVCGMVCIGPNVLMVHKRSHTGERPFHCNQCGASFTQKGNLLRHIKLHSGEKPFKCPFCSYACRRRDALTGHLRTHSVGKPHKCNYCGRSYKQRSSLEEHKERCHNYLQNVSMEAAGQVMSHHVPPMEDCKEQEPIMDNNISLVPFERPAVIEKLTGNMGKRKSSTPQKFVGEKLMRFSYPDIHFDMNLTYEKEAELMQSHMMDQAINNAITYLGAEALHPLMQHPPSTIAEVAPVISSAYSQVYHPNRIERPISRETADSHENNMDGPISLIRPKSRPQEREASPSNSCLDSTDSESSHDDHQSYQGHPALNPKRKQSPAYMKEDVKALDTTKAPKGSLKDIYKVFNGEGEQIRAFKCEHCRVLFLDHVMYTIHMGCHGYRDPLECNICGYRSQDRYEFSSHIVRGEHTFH
T6 sequence (Q96SW2 whole entry): as the sequence (Q96SW2 whole entry) above
T6 sequence (Q16531 whole entry partner): as the sequence (Q16531 whole entry partner) above
Description: as §1, §2, §3, §4, §5, §6, §7, §8

T1 sequence (Q9UKT9 whole entry): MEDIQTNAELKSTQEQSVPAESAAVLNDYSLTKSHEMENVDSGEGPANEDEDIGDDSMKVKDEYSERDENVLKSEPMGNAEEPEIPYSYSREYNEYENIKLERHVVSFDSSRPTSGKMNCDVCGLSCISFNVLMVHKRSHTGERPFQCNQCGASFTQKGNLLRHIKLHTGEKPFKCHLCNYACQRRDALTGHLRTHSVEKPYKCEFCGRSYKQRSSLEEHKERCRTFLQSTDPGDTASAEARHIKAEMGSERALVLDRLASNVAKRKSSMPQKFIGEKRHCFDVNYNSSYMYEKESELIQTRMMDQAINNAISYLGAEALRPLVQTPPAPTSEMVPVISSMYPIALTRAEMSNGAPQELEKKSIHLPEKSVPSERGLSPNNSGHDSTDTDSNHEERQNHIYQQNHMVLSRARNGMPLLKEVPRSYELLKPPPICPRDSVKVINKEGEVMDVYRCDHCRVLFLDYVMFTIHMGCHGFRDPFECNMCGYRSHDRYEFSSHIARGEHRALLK
T1 sequence (Q96SW2 whole entry): as the sequence (Q96SW2 whole entry) above
T1 sequence (Q16531 whole entry partner): as the sequence (Q16531 whole entry partner) above

Degradation of substrate protein GSPT1 (substrate protein remaining %) [5]	Compound	Degradation of substrate protein IKZF3 (substrate protein remaining %) [1]	Degradation of substrate protein IKZF1 (substrate protein remaining %) [2]	Degradation of substrate protein CK1α (substrate protein remaining %) [3]	Degradation of substrate protein WEE1 (substrate protein remaining %) [4]	Degradation of substrate protein IKZF2 (substrate protein remaining %) [6]
A (0%≤substrate protein remaining %≤80%)	O=C1CCN(N2C(=O)c3ccc(Br)cc3C2=O)C(=O)N1 [GT-04511, 5-bromo-2-(2,4-dioxotetrahydropyrimidin-1(2H)-yl)isoindoline-1,3-dione]	B (80%<substrate protein remaining %≤100%)	B (80%<substrate protein remaining %≤100%)	B (80%<substrate protein remaining %≤100%)	B (80%<substrate protein remaining %≤100%)	B (80%<substrate protein remaining %≤100%)
A (0%≤substrate protein remaining %≤80%)	O=C1CCN(N2C(=O)c3ccc(N4CCNCC4)cc3C2=O)C(=O)N1 [GT-05581, 2-(2,4-dioxotetrahydropyrimidin-1(2H)-yl)-5-(piperazin-1-yl)isoindoline-1,3-dione]	A (0%≤substrate protein remaining %≤80%)	B (80%<substrate protein remaining %≤100%)	A (0%≤substrate protein remaining %≤80%)	A (0%≤substrate protein remaining %≤80%)	B (80%<substrate protein remaining %≤100%)
A (0%≤substrate protein remaining %≤80%)	O=C1CCN(N2C(=O)c3ccc(CO)cc3C2=O)C(=O)N1 [GT-04536, 2-(2,4-dioxotetrahydropyrimidin-1(2H)-yl)-5-(hydroxymethyl)isoindoline-1,3-dione]	B (80%<substrate protein remaining %≤100%)	B (80%<substrate protein remaining %≤100%)	B (80%<substrate protein remaining %≤100%)	B (80%<substrate protein remaining %≤100%)	B (80%<substrate protein remaining %≤100%)

Compound	Degradation of substrate protein GSPT1 (substrate protein remaining %) [5]	Degradation of substrate protein IKZF3 (substrate protein remaining %) [1]	Degradation of substrate protein IKZF1 (substrate protein remaining %) [2]	Degradation of substrate protein CK1α (substrate protein remaining %) [3]	Degradation of substrate protein WEE1 (substrate protein remaining %) [4]	Degradation of substrate protein IKZF2 (substrate protein remaining %) [6]
O=C1CCN(N2C(=O)c3ccc(CBr)cc3C2=O)C(=O)N1 [GT-06979, 5-(bromomethyl)-2-(2,4-dioxotetrahydropyrimidin-1(2H)-yl)isoindoline-1,3-dione]	B (80%<substrate protein remaining %≤100%)	B (80%<substrate protein remaining %≤100%)	B (80%<substrate protein remaining %≤100%)	B (80%<substrate protein remaining %≤100%)	A (0%≤substrate protein remaining %≤80%)	A (0%≤substrate protein remaining %≤80%)
O=C1CCN(N2C(=O)c3ccc(N4CCNCC4)c(F)c3C2=O)C(=O)N1 [GT-05592, 2-(2,4-dioxotetrahydropyrimidin-1(2H)-yl)-4-fluoro-5-(piperazin-1-yl)isoindoline-1,3-dione]	B (80%<substrate protein remaining %≤100%)	A (0%≤substrate protein remaining %≤80%)	B (80%<substrate protein remaining %≤100%)	B (80%<substrate protein remaining %≤100%)	B (80%<substrate protein remaining %≤100%)	B (80%<substrate protein remaining %≤100%)

From patent US20260364184A1, “COMPOUND BASED ON OXOISOINDOLINYL-SUBSTITUTED TETRAHYDROPYRIMIDINE-DIONE AND USE THEREOF” (GLUETACS THERAPEUTICS (SHANGHAI) CO., LTD., priority 2023, published 2026)
